Assay results reported in patent publication US12138250B2, “Formulations of 6-(2-hydroxy-2-methylpropoxy)-4-(6-(6-((6-methoxypyridin-3-yl)methyl)-3,6-diazabicyclo[3.1.1]heptan-3-yl)pyridin-3-yl)pyrazolo[1,5-a]pyridine-3-carbonitrile” (Loxo Oncology, Inc., priority 2017, dated 2024).
Like-named read-outs stand apart in the source and are kept apart here. Each block holds one molecule with its values, some of them ahead of it.

Assays:
[1] = Gravimetric Vapor Sorption (GVS); assay type: physicochemical
Description: Approximately 10-20 mg of sample was placed into a mesh vapor sorption balance pan and loaded into an IGASorp Moisture Sorption Analyzer balance by Hiden Analytical. The sample was subjected to a ramping profile from 40-90% RH at 10% increments, maintaining the sample at each step until a stable weight had been achieved (98% step completion). After completion of the sorption cycle, the sample was dried using the same procedure to 0% RH, and finally taken back to the starting point of 40% RH. The weight change during the sorption/desorption cycles were plotted, allowing for the hygroscopic nature of the sample to be determined.

[2] = salt screen, succinic acid
[3] = Dynamic Vapor Sorption (DVS); assay type: physicochemical
Description: Approximately 10 mg of sample was placed into a mesh vapor sorption balance pan and loaded into a DVS-1 dynamic vapor sorption balance by Surface Measurement Systems. The sample was subjected to a ramping profile from 40-90% relative humidity (RH) at 10% increments, maintaining the sample at each step until a stable weight had been achieved (99.5% step completion). After completion of the sorption cycle, the sample was dried using the same procedure to 0% RH and then a second sorption cycle back to 40% RH. The weight change during the sorption/desorption cycles were plotted, allowing for the hygroscopic nature of the sample to be determined. XRPD analysis was then carried out on any solid retained.

[4] = Overnight storage at 40° C. and 75% RH with XRPD reanalysis (salt screen, temperature cycling polymorph screen); assay type: physicochemical; settings: for Post-temperature cycling (XRPD form): analyzed wet; for Post-stability tests (XRPD form): stored at 40° C. and 75% RH overnight
Description: Each mixture was filtered and isolated solids were analyzed (wet) by XRPD to determine crystallinity and form. Samples in which solid was not observed were stored uncapped to allow solvent evaporation. […] The samples were then reanalyzed by XRPD to determine any changes in form or crystallinity. The observations and results, including the different diffractogram patterns observed during the screen, are shown in Tables 8-32, below, and FIGS. 6A-6B through 29A-29B. After temperature cycling, each mixture was filtered and isolated solids were analyzed (wet) by XRPD to determine crystallinity and form. The samples were then stored at 40° C. and 75% RH overnight and reanalyzed by XRPD to determine any changes in form or crystallinity. Results are shown in Table 39, below, and FIGS. 40A-40D.

[5] = Solvent solubility screen in 32 solvent systems; assay type: physicochemical; settings: for solubility: 40 °C, thermodynamic from solid, read-out: Approximate solubility
Description: A solvent solubility screen was conducted in 32 solvent systems as follows. […] Between each addition, the mixture was checked for dissolution. If no dissolution was apparent, the mixture was heated to around 40° C. and checked again. This procedure was continued until dissolution was observed or until 100 volumes of solvent had been added. Undissolved material from the solubility screen was isolated and analyzed by XRPD.

form or crystallinity by XRPD post-GVS analysis [1]: No change in form | hygroscopicity by GVS [1]: moderately hygroscopic | weight increase by GVS ([1]; at 90% RH): 2.6%
SMILES: COc1ccc(CN2C3CC2CN(c2ccc(-c4cc(OCC(C)(C)O)cn5ncc(C#N)c45)cn2)C3)cn1 [Form 1]

XRPD post-cycling ([2]; IPA/water (10%)): Form 8 | XRPD post-cycling ([2]; MeCN/water (20%)): Form 8 | XRPD post-stability ([2]; MeCN/water (20%), overnight 40° C. and 75% RH): Form 8
SMILES: O=C(O)CCC(=O)O [Succinic acid]

change in form post-DVS ([3]; XRPD after DVS): No change in Form | weight increase by DVS ([3]; at 90% RH, material prepared as in Example 1, identified as Form 1): around 3.6% | hygroscopicity by DVS ([3]; material prepared as in Example 1, identified as Form 1): moderately hygroscopic | Post-temperature cycling (XRPD form) ([4]; slurry in 1,4-Dioxane, 40° C./RT cycles 72 hours): Weak diffraction | Post-temperature cycling (XRPD form) ([4]; slurry in 1-Butanol, 40° C./RT cycles 72 hours): Weak diffraction | Post-temperature cycling (XRPD form) ([4]; slurry in 1-Propanol, 40° C./RT cycles 72 hours): Form 8 | Post-temperature cycling (XRPD form) ([4]; slurry in 2-Ethoxyethanol, 40° C./RT cycles 72 hours): Weak diffraction | Post-temperature cycling (XRPD form) ([4]; slurry in 2-Methyl THF, 40° C./RT cycles 72 hours): Weak diffraction | Post-temperature cycling (XRPD form) ([4]; slurry in Acetone, 40° C./RT cycles 72 hours): Weak diffraction | Post-temperature cycling (XRPD form) ([4]; slurry in Acetone:Water (50%), 40° C./RT cycles 72 hours): Form 1 | Post-temperature cycling (XRPD form) ([4]; slurry in Anisole, 40° C./RT cycles 72 hours): Form 1 | Post-temperature cycling (XRPD form) ([4]; slurry in CHCl3, 40° C./RT cycles 72 hours): Amorphous | Post-temperature cycling (XRPD form) ([4]; slurry in Cyclohexane, 40° C./RT cycles 72 hours): Form 1 | Post-temperature cycling (XRPD form) ([4]; slurry in Cyclohexanone, 40° C./RT cycles 72 hours): Weak diffraction | Post-temperature cycling (XRPD form) ([4]; slurry in DCM, 40° C./RT cycles 72 hours): Amorphous | Post-temperature cycling (XRPD form) ([4]; slurry in DMSO, 40° C./RT cycles 72 hours): Form 1 | Post-temperature cycling (XRPD form) ([4]; slurry in EtOAc, 40° C./RT cycles 72 hours): Form 1 | Post-temperature cycling (XRPD form) ([4]; slurry in Ethanol, 40° C./RT cycles 72 hours): Weak diffraction | Post-temperature cycling (XRPD form) ([4]; slurry in IPA, 40° C./RT cycles 72 hours): Form 8 | Post-temperature cycling (XRPD form) ([4]; slurry in MEK, 40° C./RT cycles 72 hours): Weak diffraction | Post-temperature cycling (XRPD form) ([4]; slurry in MIBK, 40° C./RT cycles 72 hours): Form 1 | Post-temperature cycling (XRPD form) ([4]; slurry in MeCN:Water (20%), 40° C./RT cycles 72 hours): Weak diffraction | Post-temperature cycling (XRPD form) ([4]; slurry in MeOAc, 40° C./RT cycles 72 hours): Weak diffraction | Post-temperature cycling (XRPD form) ([4]; slurry in Nitromethane, 40° C./RT cycles 72 hours): Weak diffraction | Post-temperature cycling (XRPD form) ([4]; slurry in THF, 40° C./RT cycles 72 hours): Weak diffraction | Post-temperature cycling (XRPD form) ([4]; slurry in THF:Water (1%), 40° C./RT cycles 72 hours): Weak diffraction | Post-temperature cycling (XRPD form) ([4]; slurry in Water, 40° C./RT cycles 72 hours): Form 1 | Post-stability tests (XRPD form) ([4]; solid from 1,4-Dioxane): Form 1 | Post-stability tests (XRPD form) ([4]; solid from 1-Butanol): Form 1 | Post-stability tests (XRPD form) ([4]; solid from 1-Propanol): Form 1 | Post-stability tests (XRPD form) ([4]; solid from 2-Ethoxyethanol): Form 1 | Post-stability tests (XRPD form) ([4]; solid from 2-Methyl THF): Form 1 | Post-stability tests (XRPD form) ([4]; solid from Acetone:Water (50%)): Form 1 | Post-stability tests (XRPD form) ([4]; solid from Acetone): Form 1 | Post-stability tests (XRPD form) ([4]; solid from Anisole): Form 1 | Post-stability tests (XRPD form) ([4]; solid from CHCl3): Form 1 | Post-stability tests (XRPD form) ([4]; solid from Cyclohexane): Form 1 | Post-stability tests (XRPD form) ([4]; solid from Cyclohexanone): Form 1 | Post-stability tests (XRPD form) ([4]; solid from DCM): Form 1 | Post-stability tests (XRPD form) ([4]; solid from DMSO): Form 1 | Post-stability tests (XRPD form) ([4]; solid from EtOAc): Form 1 | Post-stability tests (XRPD form) ([4]; solid from Ethanol): Form 1 | Post-stability tests (XRPD form) ([4]; solid from IPA): Form 1 | Post-stability tests (XRPD form) ([4]; solid from MEK): Form 1 | Post-stability tests (XRPD form) ([4]; solid from MIBK): Form 1 | Post-stability tests (XRPD form) ([4]; solid from MeCN:Water (20%)): Form 1 | Post-stability tests (XRPD form) ([4]; solid from MeOAc): Form 1 | Post-stability tests (XRPD form) ([4]; solid from Nitromethane): Form 1 | Post-stability tests (XRPD form) ([4]; solid from THF): Form 1 | Post-stability tests (XRPD form) ([4]; solid from Water): Form 1 | solubility ([5]; aqueous with cosolvent or surfactant or cyclodextrin, solvent Acetone:Water (50%)): < 5000 µg/mL | solubility ([5]; organic solvent or mixture, solvent 1,4-Dioxane, (P) = partial solubility at 100 volumes): < 5000 µg/mL | solubility ([5]; organic solvent or mixture, solvent 1-Butanol): < 5000 µg/mL | solubility ([5]; organic solvent or mixture, solvent 1-Propanol): < 5000 µg/mL | solubility ([5]; organic solvent or mixture, solvent 2-Ethoxyethanol, (P) = partial solubility at 100 volumes): < 5000 µg/mL | solubility ([5]; organic solvent or mixture, solvent 2-Methyl THF, (P) = partial solubility at 100 volumes): < 5000 µg/mL | solubility ([5]; organic solvent or mixture, solvent Acetone): < 5000 µg/mL | solubility ([5]; organic solvent or mixture, solvent Anisole, (P) = partial solubility at 100 volumes): < 5000 µg/mL | solubility ([5]; organic solvent or mixture, solvent CHCl3, (P) = partial solubility at 100 volumes): < 5000 µg/mL | solubility ([5]; organic solvent or mixture, solvent Cyclohexane): < 5000 µg/mL | solubility ([5]; organic solvent or mixture, solvent Cyclohexanone, (P) = partial solubility at 100 volumes): < 5000 µg/mL | solubility ([5]; organic solvent or mixture, solvent DCM, (P) = partial solubility at 100 volumes): < 5000 µg/mL | solubility ([5]; organic solvent or mixture, solvent EtOAc): < 5000 µg/mL | solubility ([5]; organic solvent or mixture, solvent Ethanol): < 5000 µg/mL | solubility ([5]; organic solvent or mixture, solvent IPA): < 5000 µg/mL | solubility ([5]; organic solvent or mixture, solvent MEK): < 5000 µg/mL | solubility ([5]; organic solvent or mixture, solvent MIBK): < 5000 µg/mL | solubility ([5]; organic solvent or mixture, solvent MeOAc): < 5000 µg/mL | solubility ([5]; organic solvent or mixture, solvent Nitromethane, (P) = partial solubility at 100 volumes): < 5000 µg/mL | solubility ([5]; organic solvent or mixture, solvent THF, (P) = partial solubility at 100 volumes): < 5000 µg/mL | solubility ([5]; solvent Water): < 5000 µg/mL | solubility in solvent solubility screen ([5]; DMSO, NMP, and THF/water (1%)): moderate solubility | solubility in solvent solubility screen ([5]; majority of solvent systems investigated): low solubility
SMILES: COc1ccc(CN2C3CC2CN(c2ccc(-c4cc(OCC(C)(C)O)cn5ncc(C#N)c45)cn2)C3)cn1 [compound of Formula (I), 6-(2-hydroxy-2-methylpropoxy)-4-(6-(6-((6-methoxypyridin-3-yl)methyl)-3,6-diazabicyclo[3.1.1]heptan-3-yl)pyridin-3-yl)pyrazolo[1,5-a]pyridine-3-carbonitrile]
